Assay results from patent US20050164234A1, “Methods of using mammalian RNase H and compositions thereof” (priority 1997, published 2005).
Like-named read-outs stand apart in the source and are kept apart here.

What was measured:
RNA/DNA substrate = test: RNase H activity assay of renatured recombinant human RNase H1; type: biochemical; settings: 10 ng purified renatured enzyme, 2 hours
DNA/2′F heteroduplex [1] = test: Binding affinity of RNase H1 proteins by inhibition analysis with noncleavable heteroduplex
Procedure: Binding affinities were determined by inhibition analysis. Lima and Crooke, 1997, Biochemistry 36, 390-398. The RNA-DNA heteroduplex was prepared as described above except in a final volume of 60 μL and with the concentration of the heteroduplex ranging from 10 nM to 500 nM. The non-cleavable heteroduplex substrate was prepared in 60 μL of hybridization buffer containing equimolar concentrations of oligodeoxynucleotide and complementary 2′-fluoro modified oligonucleotide in excess of the RNA-DNA hybrid. The DNA-2′-fluoro duplex was added to the RNA-DNA duplex and the combined reaction was digested with human RNase H1 as described for the determination of initial rates. The reactions were quenched, analyzed and quantitated as described for the determination of initial rates.
The binding affinities of human RNase H1 and the RNase H1[ΔI-II] mutant were determined indirectly using a competition assay as previously described. Lima and Crooke, 1997, Biochemistry 36, 390-398. Briefly, the cleavage rate of the RNA/DNA heteroduplex was determined at a variety of substrate concentrations in both the presence and absence competing noncleavable DNA/2′F heteroduplex.

[2] = test system: 17 nucleotide long RNA/DNA heteroduplex; test: Initial cleavage rates of RNA/DNA heteroduplex by wild-type and mutant human RNase H1 proteins; type: biochemical; settings: 0.5 ng enzyme, 37° C., average of n≧3; detection limit = <1% of heteroduplex substrate cleaved over 60 min
From the text: The oligoribonucleotides were synthesized on a PE-ABI 380B synthesizer using 5′-O-silyl-2′-O-bis(2-acetoxyethoxy)methyl ribonucleoside phosphoramidites and procedures described elsewhere. Scaringe et al., 1998, J. Am. Chem. Soc. 120, 11820-11821/The oligoribonucleotides were purified by reverse-phase HPLC. The DNA oligonucleotides were synthesized on a PE-ABI 380B automated DNA synthesizer and standard phosphoramidite chemistry. The DNA oligonucleotides were purified by precipitation 2 times out of 0.5 M NaCl with 2.5 volumes of ethyl alcohol.
The RNA substrate is 5′-end-labeled with ^32P using 20 u of T4 polynucleotide kinase (Promega, Wis.), 120 pmol (7000 Ci/mmol) [γ-^32P]ATP (ICN, CA), 40 pmol RNA, 70 mM tris, pH 7.6, 10 mM MgCl2 and 50 mM DTT. The kinase reaction is incubated at 37° C. for 30 min. The labeled oligoribonucleotide was purified by electrophoresis on a 12% denaturing polyacrylamide gel. The specific activity of the labeled oligonucleotide is approximately 3000 to 8000 cpm/fmol.
The heteroduplex substrate was prepared in 100 μL containing 50 nM unlabeled oligoribonucleotide, 10^5 cpm of ^32P labeled oligoribonucleotide, 100 nM complementary oligodeoxynucleotide and hybridization buffer [20 mM tris, pH 7.5, 20 mM KCl]. Reactions were heated at 90° C. for 5 min, cooled to 37° C. and 60 u of Prime RNase Inhibitor (5 Prime→3 Prime, CO) and MgCl2 at a final concentration of 1 mM were added. Hybridization reactions were incubated 2-16 h at 37° C. and β-mercaptoethanol (BME) was added at final concentration of 20 mM.
The heteroduplex substrate was digested with 0.5 ng human RNase H1 at 37° C. A 10 μl aliquot of the cleavage reaction was removed at time points ranging from 2-120 min and quenched by adding 5 μL of stop solution (8 M urea and 120 mM EDTA). The aliquots were heated at 90° C. for two min, resolved in a 12% denaturing polyacrylamide gel and the substrate and product bands were quantitated on a Molecular Dynamics PhosphorImager. The concentration of the converted product was plotted as a function of time. The initial cleavage rate was obtained from the slope (mole RNA cleaved/min) of the best-fit line for the linear portion of the plot, which comprises, in general <10% of the total reaction and data from at least five time points.
The initial cleavage rates (V0) were determined for the human RNase H1 enzyme and the mutant proteins using a 17 nucleotide long RNA/DNA heteroduplex, (Table 5).
Initial cleavage rates were determined as described in above. The initial cleavage rates are an average of n≧3 measurements. *Detection limit=cleavage rates resulting in <1% of the heteroduplex substrate over 60 min.

DNA/2′F heteroduplex [3] = settings: derived from previously reported data, Lima and Crooke (1997); cited from earlier work

Molecule	cleavage of the substrate (RNA/DNA substrate) [%]	Kd (DNA/2′F heteroduplex [1]; for DNA/2′F heteroduplex, from ≧2 slopes of Lineweaver-Burk analysis) [nM]	binding affinity for heteroduplex substrate tighter than RNase H1[ΔI-II] mutant (DNA/2′F heteroduplex [1]; wild-type versus ΔI-II) [fold]	V0 [2] [pM/min]	Kd (DNA/2′F heteroduplex [3]) [nM]
Wild-type RNase H1: cloned and expressed human RNase H1, 286 amino acids, his-tag fusion protein; SEQ ID NO: 1	40	75	< 2	658 ± 130	–
E. coli RNase H1: E. coli RNase H1 enzyme, 155 amino acids, literature comparator (protein) MLKQVEIFTDGSCLGNPGPGGYGAILRYRGREKTFSAGYTRTTNNRMELMAAIVALEALKEHCEVILSTDSQYVRQGITQWIHNWKKRGWKTADKKPVKNVDLWQRLDAALGQHQIKWEWVKGHAGHPENERCDELARAAAMNPTLEDTGYQVEV	–	–	–	–	1600
